The record followed here is PubChem BioAssay (NCI).

Among the test systems are MCF7 breast; UACC-62 melanoma; SK-MEL-2 melanoma; RXF 393 renal; OVCAR-4 ovarian; MDA-N; DU-145 prostate; SF-268 CNS; SF-295 CNS; SF-539 CNS; CAKI-1 renal.
Common to all, as to test: growth of human tumour cells (NCI), 48 h

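Tested at 5 concentrations; 48 h exposure; 96-well plates; endpoints linearly interpolated, else capped at highest concentration. GI50 marks 50% less growth. TGI marks complete inhibition of growth.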

`NS(=O)(=O)c1ccc(/C=C/c2cccc(O)c2)cc1`: the TGI in the assay on MCF7 breast was more than 100 µM; in the assay on UACC-62 melanoma it was 50.4 µM; with SK-MEL-2 melanoma, 78.2 µM; in the assay with RXF 393 renal it was more than 100 µM; in the assay with OVCAR-4 ovarian it was more than 100 µM; with MDA-N it was more than 100 µM. Further, the TGI in the assay with DU-145 prostate, in the assay on SF-268 CNS, in the assay with SF-295 CNS, in the assay on SF-539 CNS and in the assay with CAKI-1 renal was more than 100 µM throughout. Also, the GI50 in the assay on UACC-62 melanoma is 18.6 µM; in the assay with OVCAR-4 ovarian it was 27.8 µM; with SF-268 CNS, 65.6 µM; in the assay on SF-539 CNS, 36.7 µM; in the assay on CAKI-1 renal it was 50.2 µM.

Turning to `O=C(CSC1=NCCN1)c1ccccc1`, the TGI in the assay on MCF7 breast, in the assay with UACC-62 melanoma, in the assay with SK-MEL-2 melanoma, with RXF 393 renal, in the assay on OVCAR-4 ovarian and in the assay on MDA-N was more than 100 µM in each case. Besides, the TGI in the assay with DU-145 prostate, with SF-268 CNS, with SF-295 CNS, in the assay on SF-539 CNS and with CAKI-1 renal was more than 100 µM in each case.

Regarding `COc1ccc(-c2cn3c(n2)sc2cc(C)ccc23)cc1`, the TGI in the assay with MCF7 breast worked out at 95.7 µM; in the assay on UACC-62 melanoma, 41.9 µM; in the assay on SK-MEL-2 melanoma, 37.1 µM; with RXF 393 renal, 35.8 µM; in the assay with OVCAR-4 ovarian, 83.8 µM; in the assay with MDA-N it was 58.4 µM. Also, the TGI in the assay on DU-145 prostate was more than 100 µM; with SF-268 CNS, 78.7 µM; in the assay on SF-295 CNS, 52.5 µM; in the assay on SF-539 CNS, 33.7 µM; in the assay on CAKI-1 renal it was more than 100 µM.

In the case of `CC(=O)Oc1ccc2c(c1)CC[C@@H]1C2[C@@H](O[N+](=O)[O-])C[C@@]2(C)C1CC[C@@H]2O` (stereo not given in full), the TGI in the assay with MCF7 breast was more than 90.3 µM; in the assay on UACC-62 melanoma, more than 100 µM; in the assay on SK-MEL-2 melanoma, more than 100 µM; in the assay on RXF 393 renal, more than 100 µM; in the assay with OVCAR-4 ovarian, more than 100 µM; in the assay with MDA-N, 27.9 µM. In addition, the TGI in the assay on DU-145 prostate was more than 87.2 µM; in the assay on SF-268 CNS it was more than 83 µM; in the assay on SF-295 CNS, more than 100 µM; with SF-539 CNS it was 72.6 µM; in the assay with CAKI-1 renal, more than 100 µM.

On to `COc1cc2[nH]c(-c3ccccc3)cc(=O)c2cc1OC`, for which the TGI was more than 28.8 µM in the assay on MCF7 breast; more than 89 µM in the assay on UACC-62 melanoma; more than 100 µM in the assay on SK-MEL-2 melanoma; more than 72.7 µM in the assay on RXF 393 renal; more than 100 µM with OVCAR-4 ovarian; 6.44 µM in the assay on MDA-N. In addition, the TGI in the assay on DU-145 prostate is more than 100 µM; with SF-268 CNS it was more than 100 µM; in the assay with SF-295 CNS, more than 100 µM; with SF-539 CNS, 60.5 µM; with CAKI-1 renal it was more than 100 µM.

On to `O=C1CSC2(CCN(CCCN3c4ccccc4Sc4ccc(Cl)cc43)CC2)N1`, for which the TGI in the assay on MCF7 breast came to 18.5 µM; in the assay on UACC-62 melanoma, 23.7 µM; in the assay with SK-MEL-2 melanoma it was 31 µM; in the assay with RXF 393 renal, 16.3 µM; in the assay with OVCAR-4 ovarian, 23.1 µM; in the assay on MDA-N it was 23.6 µM. In addition, the TGI with DU-145 prostate was determined as 24.2 µM; in the assay with SF-268 CNS, 26.6 µM; in the assay on SF-295 CNS, 22 µM; in the assay on SF-539 CNS it was 26.4 µM; in the assay with CAKI-1 renal, 25 µM.

As for `NC1CCC(c2cc3ccccc3s2)(N2CCCCC2)CC1` (stereo not given), the TGI is 3.05 µM with MCF7 breast; 6.25 µM in the assay on UACC-62 melanoma; 2.95 µM with SK-MEL-2 melanoma; 21.2 µM in the assay with RXF 393 renal; 15.2 µM in the assay on OVCAR-4 ovarian; 3.2 µM in the assay on MDA-N. Also, the TGI in the assay with DU-145 prostate worked out at 16.4 µM; in the assay with SF-268 CNS it was 15.8 µM; in the assay on SF-295 CNS it was 12.7 µM; in the assay on SF-539 CNS, 4.59 µM; with CAKI-1 renal it was 10.1 µM.

For the molecule `Clc1ccc(-c2nc(-c3ccc(Cl)cc3)[s+]s2)cc1`, the TGI in the assay with MCF7 breast was more than 100 µM; in the assay with UACC-62 melanoma, more than 100 µM; with SK-MEL-2 melanoma it was more than 100 µM; in the assay with RXF 393 renal it was more than 100 µM; in the assay on OVCAR-4 ovarian it was 98.9 µM; with MDA-N it was more than 100 µM. Further, the TGI in the assay with DU-145 prostate, with SF-268 CNS, in the assay on SF-295 CNS, in the assay on SF-539 CNS and in the assay on CAKI-1 renal was more than 100 µM each time.

Regarding `COc1cc2c(cc1OCCCC(=O)Nc1cc(C(=O)Nc3cc(C(=O)NCCCN(C)C)n(C)n3)n(C)n1)N=CC1CCCN1C2=O` (stereo not given), the TGI came out at 29.5 µM in the assay on MCF7 breast; 57.3 µM in the assay on UACC-62 melanoma; 31.2 µM with SK-MEL-2 melanoma; 33.6 µM in the assay on RXF 393 renal; 26.5 µM in the assay with OVCAR-4 ovarian; 31.6 µM in the assay with MDA-N. The TGI with DU-145 prostate was 32.2 µM; in the assay on SF-268 CNS it was 41.2 µM; with SF-295 CNS it was more than 100 µM; in the assay on SF-539 CNS it was 44.1 µM; in the assay on CAKI-1 renal, 31.2 µM.

For `NNC(=O)c1ccccc1NC(=O)/C(=C/c1ccccc1)NC(=O)c1ccccc1`, the TGI in the assay with MCF7 breast, in the assay with UACC-62 melanoma, with SK-MEL-2 melanoma, with RXF 393 renal, in the assay with OVCAR-4 ovarian and in the assay with MDA-N was more than 100 µM in each case. The TGI in the assay on DU-145 prostate, with SF-268 CNS, in the assay on SF-295 CNS, in the assay on SF-539 CNS and in the assay on CAKI-1 renal was more than 100 µM in each case.

With `CC1CC[C@]2(C(=O)O)CCC3(C)C(=C2[C@H]1C)C=CC1[C@@]2(C)CC[C@H](O)C(C)(C)C2CC[C@]13C` (stereo not given in full), the TGI in the assay with MCF7 breast was more than 100 µM; in the assay on UACC-62 melanoma, more than 100 µM; with SK-MEL-2 melanoma it was more than 100 µM; in the assay on RXF 393 renal it was 29 µM; in the assay with OVCAR-4 ovarian, more than 100 µM; in the assay with MDA-N it was more than 100 µM. In addition, the TGI in the assay with DU-145 prostate is 42.4 µM; in the assay with SF-268 CNS, more than 100 µM; in the assay with SF-295 CNS, 47 µM; in the assay on SF-539 CNS, 50.9 µM; in the assay on CAKI-1 renal it was 84.1 µM.

Take `COC1CCC(OC2CC(C3(C)CCC4(CC(O)C(C)C(C(C)/C=C(\C)C(=O)C(C)CC(C)C(=O)O)O4)O3)OC3(OC(C4OC(O)(CO)C(C)CC4C)CC3C)C2C)OC1C` (stereo not given): the TGI was 1.91 µM in the assay on MCF7 breast; 0.298 µM with UACC-62 melanoma; 0.576 µM in the assay on SK-MEL-2 melanoma; 0.225 µM in the assay on RXF 393 renal; 10.3 µM with OVCAR-4 ovarian; 0.549 µM in the assay on MDA-N. For the same molecule, the TGI in the assay with DU-145 prostate was found to be 3.63 µM; in the assay on SF-268 CNS it was 2.84 µM; in the assay with SF-295 CNS, 1.79 µM; in the assay with SF-539 CNS, 1.17 µM; in the assay with CAKI-1 renal, 2.21 µM.

For `COC(=O)CC1C2CC3C(C2=O)C13` (stereo not given), the TGI with MCF7 breast, with UACC-62 melanoma, in the assay on SK-MEL-2 melanoma, in the assay with RXF 393 renal, with OVCAR-4 ovarian and in the assay with MDA-N was more than 100 µM in each case. The TGI with DU-145 prostate, in the assay on SF-268 CNS, with SF-295 CNS, in the assay on SF-539 CNS and in the assay with CAKI-1 renal was more than 100 µM in each case.

For the molecule `CC1=Nn2c(nc3sc4c(c3c2=O)CCCC4)SC1`, the TGI with MCF7 breast was more than 100 µM; in the assay with UACC-62 melanoma, more than 100 µM; in the assay on SK-MEL-2 melanoma, more than 100 µM; in the assay on RXF 393 renal it was more than 100 µM; in the assay on OVCAR-4 ovarian, more than 100 µM; in the assay on MDA-N it was more than 31.6 µM. The TGI with DU-145 prostate, in the assay on SF-268 CNS, in the assay with SF-295 CNS, in the assay on SF-539 CNS and in the assay on CAKI-1 renal was more than 100 µM throughout.

Turning to `COc1ccc(-c2cc(-c3ccc(Nc4ccnc5cc(Cl)ccc45)cc3)nc(N)c2C#N)c2ccccc12`, the TGI in the assay on MCF7 breast, in the assay with UACC-62 melanoma, with SK-MEL-2 melanoma, in the assay on RXF 393 renal, in the assay on OVCAR-4 ovarian and with MDA-N was more than 100 µM each time. Also, the TGI in the assay with DU-145 prostate, in the assay with SF-268 CNS, in the assay with SF-295 CNS, in the assay on SF-539 CNS and in the assay with CAKI-1 renal was more than 100 µM in each case.

Take `C=C(Br)CN(C#N)CC(=C)Br`: the TGI in the assay with MCF7 breast, in the assay on UACC-62 melanoma, in the assay with SK-MEL-2 melanoma, with RXF 393 renal, in the assay with OVCAR-4 ovarian and with MDA-N was more than 100 µM each time. Further, the TGI in the assay with DU-145 prostate, in the assay with SF-268 CNS, with SF-295 CNS, in the assay with SF-539 CNS and in the assay on CAKI-1 renal was more than 100 µM in each case.

As for `CCCCCC(C)C[C@H]1CO[C@H](c2ccc[nH]2)N[C@H]1C(=O)OC` (stereo not given in full), the TGI in the assay with MCF7 breast, in the assay with UACC-62 melanoma, with SK-MEL-2 melanoma, in the assay on RXF 393 renal, in the assay with OVCAR-4 ovarian and in the assay with MDA-N was more than 100 µM in each case. Moreover, the TGI in the assay on DU-145 prostate, in the assay with SF-268 CNS, with SF-295 CNS, in the assay on SF-539 CNS and in the assay with CAKI-1 renal was more than 100 µM throughout.

Take `COc1cccc(C2c3cc4c(cc3OC(N3CCOCC3)C2C)OCO4)c1O` (stereo not given): the TGI in the assay on MCF7 breast is more than 44.2 µM; in the assay on UACC-62 melanoma it was 40.2 µM; in the assay on SK-MEL-2 melanoma, 40.7 µM; in the assay with RXF 393 renal, 9.43 µM; with OVCAR-4 ovarian, more than 100 µM; in the assay on MDA-N it was 4.58 µM. Also, the TGI is 26.6 µM with DU-145 prostate; more than 79.1 µM in the assay on SF-268 CNS; 42.9 µM in the assay with SF-295 CNS; 9.66 µM in the assay with SF-539 CNS; 18.6 µM in the assay on CAKI-1 renal.

As for `C/C(=N/O)c1cccc(Nc2nc3ccccc3c3[nH]c4ccccc4c23)c1`, the TGI was determined as 5.63 µM with MCF7 breast; 4.65 µM in the assay on UACC-62 melanoma; 5.8 µM in the assay on SK-MEL-2 melanoma; 4.59 µM in the assay on RXF 393 renal; 6.96 µM with OVCAR-4 ovarian; 7.56 µM in the assay on MDA-N. Further, the TGI with DU-145 prostate is 5.59 µM; in the assay on SF-268 CNS it was 6.24 µM; in the assay on SF-295 CNS, 5.58 µM; in the assay on SF-539 CNS, 23.9 µM; in the assay on CAKI-1 renal, 6.89 µM.

For the molecule `CC1(C)CCOC(=O)C(Cl)CC1Cl` (stereo not given), the TGI in the assay on MCF7 breast, with UACC-62 melanoma, in the assay on SK-MEL-2 melanoma, in the assay on RXF 393 renal, in the assay on OVCAR-4 ovarian and in the assay with MDA-N was more than 100 µM throughout. Further, the TGI with DU-145 prostate, in the assay on SF-268 CNS, with SF-295 CNS, with SF-539 CNS and in the assay on CAKI-1 renal was more than 100 µM each time.
